Data as given in US9890142B2, “PDE4 inhibitor” (Meiji Seika Pharma Co., Ltd., priority 2013, dated 2018).

Test system: PDE4
Assay: Evaluation of PDE4 inhibition (scintillation proximity assay)
Assay type: biochemical
Details: inhibition rate relative to control, test compound at 1 μM
Outline: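 PDE4 was incubated 120 min at room temperature with [3H]-cAMP and compound in 50 mM Tris-HCl pH 7.5, 8.3 mM MgCl2, 1.7 mM EDTA, 0.3 mg/mL BSA. Product captured on ZnSO4-containing YSi-SPA beads and counted; inhibition calculated against DMSO control after no-enzyme blank subtraction.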

SMILES | PDE4 inhibitory activity (1 μM (%)) [%]
COCc1cc(Cl)cc2nc(N3CCNC[C@@H]3C)oc12 [Example 107, (S)-5-Chloro-7-(methoxymethyl)-2-(2-methylpiperazin-1-yl)benzoxazole] | 66
C[C@H]1CNCCN1c1nc2cc(Cl)cc(-c3ccon3)c2o1 [Example 108, (S)-5-Chloro-7-(isoxazol-3-yl)-2-(2-methylpiperazin-1-yl)benzoxazole] | 66
C[C@H]1CNCCN1c1nc2cc(Cl)cc(-c3ccno3)c2o1 [Example 109, (S)-5-Chloro-7-(isoxazol-5-yl)-2-(2-methylpiperazin-1-yl)benzoxazole] | 61
C[C@H]1CNCCN1c1nc2cc(Cl)cc(Br)c2o1 [Example 110, (S)-7-Bromo-5-chloro-2-(2-methylpiperazin-1-yl)benzoxazole] | 57
C[C@H]1CNCCN1c1nc2cc(C#N)cc(-c3ccccn3)c2o1 [Example 111, (S)-5-Cyano-2-(2-methylpiperazin-1-yl)-7-(pyridin-2-yl)benzoxazole] | 83
C[C@H]1CNCCN1c1nc2cc(C#N)cc(-c3nccs3)c2o1 [Example 112, (S)-5-Cyano-2-(2-methylpiperazin-1-yl)-7-(thiazol-2-yl)benzoxazole] | 94
C[C@H]1CNCCN1c1nc2cc(C#N)cc(-c3ncco3)c2o1 [Example 113, (S)-5-Cyano-2-(2-methylpiperazin-1-yl)-7-(oxazol-2-yl)benzoxazole] | 71
Cc1cc(-c2ccccn2)c2oc(N3CCNC[C@@H]3C)nc2c1 [Example 114, (S)-5-methyl-2-(2-methylpiperazin-1-yl)-7-(pyridin-2-yl)benzoxazole] | 77
Cc1cc(-c2nccs2)c2oc(N3CCNC[C@@H]3C)nc2c1 [Example 115, (S)-5-methyl-2-(2-methylpiperazin-1-yl)-7-(thiazol-2-yl)benzoxazole] | 91
Cc1cc(-c2ncco2)c2oc(N3CCNC[C@@H]3C)nc2c1 [Example 116, (S)-5-methyl-2-(2-methylpiperazin-1-yl)-7-(oxazol-2-yl)benzoxazole] | 80
C[C@H]1CNCCN1c1nc2c(C(F)(F)F)c(F)cc(-c3ccccn3)c2o1 [Example 117, (S)-5-Fluoro-2-(2-methylpiperazin-1-yl)-7-(pyridin-2-yl)-4-(trifluoromethyl)benzoxazole] | 88
C[C@H]1CNCCN1c1nc2c(C(F)(F)F)c(F)cc(-c3nccs3)c2o1 [Example 118, (S)-5-Fluoro-2-(2-methylpiperazin-1-yl)-7-(thiazol-2-yl)-4-(trifluoromethyl)benzoxazole] | 99
C[C@H]1CNCCN1c1nc2c(C(F)(F)F)c(F)cc(-n3cccn3)c2o1 [Example 119, (S)-5-Fluoro-2-(2-methylpiperazin-1-yl)-7-(1H-pyrazol-1-yl)-4-(trifluoromethyl)benzoxazole] | 91
C[C@H]1CNCCN1c1nc2c(F)c(Cl)c(F)c(-c3ccccn3)c2o1 [Example 120, (S)-5-Chloro-4,6-difluoro-2-(2-methylpiperazin-1-yl)-7-(pyridin-2-yl)benzoxazole] | 41
C[C@H]1CNCCN1c1nc2c(F)c(Cl)c(F)c(-c3nccs3)c2o1 [Example 121, (S)-5-Chloro-4,6-difluoro-2-(2-methylpiperazin-1-yl)-7-(thiazol-2-yl)benzoxazole] | 62
C[C@H]1CNCCN1c1nc2c(F)c(F)c(F)c(-c3ccccn3)c2o1 [Example 122, (S)-4,5,6-Trifluoro-2-(2-methylpiperazin-1-yl)-7-(pyridin-2-yl)benzoxazole] | 79
C[C@H]1CNCCN1c1nc2c(F)c(F)c(F)c(-c3nccs3)c2o1 [Example 123, (S)-4,5,6-Trifluoro-2-(2-methylpiperazin-1-yl)-7-(thiazol-2-yl)benzoxazole] | 95
C[C@H]1CNCCN1c1nc2c(F)c(F)c(F)c(-n3cccn3)c2o1 [Example 124, (S)-4,5,6-Trifluoro-2-(2-methylpiperazin-1-yl)-7-(1H-pyrazol-1-yl)benzoxazole] | 46
C[C@H]1CNCCN1c1nc2cc(C(F)(F)F)cc(-c3ccccn3)c2o1 [Example 125, (S)-2-(2-Methylpiperazin-1-yl)-7-(pyridin-2-yl)-5-(trifluoromethyl)benzoxazole] | 91
C[C@H]1CNCCN1c1nc2cc(C(F)(F)F)cc(-c3nccs3)c2o1 [Example 126, (S)-2-(2-Methylpiperazin-1-yl)-7-(thiazol-2-yl)-5-(trifluoromethyl)benzoxazole] | 95

SMILES | PDE4 inhibitory activity (1 μM (%)) [%]
C[C@H]1CNCCN1c1nc2cc(C(F)(F)F)cc(-c3ncco3)c2o1 [Example 127, (S)-2-(2-Methylpiperazin-1-yl)-7-(oxazol-2-yl)-5-(trifluoromethyl)benzoxazole] | 90
C[C@H]1CNCCN1c1nc2c(F)c(Cl)cc(-c3ccccn3)c2o1 [Example 128, (S)-5-Chloro-4-fluoro-2-(2-methylpiperazin-1-yl)-7-(pyridin-2-yl)benzoxazole] | 79
C[C@H]1CNCCN1c1nc2c(F)c(Cl)cc(-c3nccs3)c2o1 [Example 129, (S)-5-Chloro-4-fluoro-2-(2-methylpiperazin-1-yl)-7-(thiazol-2-yl)benzoxazole] | 97
C[C@H]1CNCCN1c1nc2c(F)c(Cl)cc(-n3cccn3)c2o1 [Example 130, (S)-5-Chloro-4-fluoro-2-(2-methylpiperazin-1-yl)-7-(1H-pyrazol-1-yl)benzoxazole] | 83
Cc1c(Cl)cc(-c2ccccn2)c2oc(N3CCNC[C@@H]3C)nc12 [Example 131, (S)-5-Chloro-4-methyl-2-(2-methylpiperazin-1-yl)-7-(pyridin-2-yl)benzoxazole] | 90
Cc1c(Cl)cc(-c2nccs2)c2oc(N3CCNC[C@@H]3C)nc12 [Example 132, (S)-5-Chloro-4-methyl-2-(2-methylpiperazin-1-yl)-7-(thiazol-2-yl)benzoxazole] | 94
Cc1c(Cl)cc(-n2cccn2)c2oc(N3CCNC[C@@H]3C)nc12 [Example 133, (S)-5-Chloro-4-methyl-2-(2-methylpiperazin-1-yl)-7-(1H-pyrazol-1-yl)benzoxazole] | 92
C[C@H]1CNCCN1c1nc2c(OC(F)(F)F)c(F)cc(-c3ccccn3)c2o1 [Example 134, (S)-5-Fluoro-2-(2-methylpiperazin-1-yl)-7-(pyridin-2-yl)-4-(trifluoromethoxy)benzoxazole] | 88
C[C@H]1CNCCN1c1nc2c(OC(F)(F)F)c(F)cc(-c3nccs3)c2o1 [Example 135, (S)-5-Fluoro-2-(2-methylpiperazin-1-yl)-7-(thiazol-2-yl)-4-(trifluoromethoxy)benzoxazole] | 99
C[C@H]1CNCCN1c1nc2c(OC(F)(F)F)c(F)cc(-n3cccn3)c2o1 [Example 136, (S)-5-Fluoro-2-(2-methylpiperazin-1-yl)-7-(1H-pyrazol-1-yl)-4-(trifluoromethoxy)benzoxazole] | 90
Cc1c(Cl)cc2nc(N3CCNC[C@@H]3C)oc2c1-c1ccccn1 [Example 137, (S)-5-Chloro-6-methyl-2-(2-methylpiperazin-1-yl)-7-(pyridin-2-yl)benzoxazole] | 33
Cc1c(Cl)cc2nc(N3CCNC[C@@H]3C)oc2c1-c1nccs1 [Example 138, (S)-5-Chloro-6-methyl-2-(2-methylpiperazin-1-yl)-7-(thiazol-2-yl)benzoxazole] | 86
Cc1c(Cl)cc2nc(N3CCNC[C@@H]3C)oc2c1-n1cccn1 [Example 139, (S)-5-Chloro-6-methyl-2-(2-methylpiperazin-1-yl)-7-(1H-pyrazol-1-yl)benzoxazole] | 39
COc1c(Cl)cc2nc(N3CCNC[C@@H]3C)oc2c1-c1ccccn1 [Example 140, (S)-5-Chloro-6-methoxy-2-(2-methylpiperazin-1-yl)-7-(pyridin-2-yl)benzoxazole] | 35
COc1c(Cl)cc2nc(N3CCNC[C@@H]3C)oc2c1-c1nccs1 [Example 141, (S)-5-Chloro-6-methoxy-2-(2-methylpiperazin-1-yl)-7-(thiazol-2-yl)benzoxazole] | 77
C[C@H]1CNCCN1c1nc2cc(Cl)c(C#N)c(-c3nccs3)c2o1 [Example 142, (S)-5-Chloro-6-cyano-2-(2-methylpiperazin-1-yl)-7-(thiazol-2-yl)benzoxazole] | 86
C[C@H]1CNCCN1c1nc2c(C#N)c(Cl)cc(-c3nccs3)c2o1 [Example 143, (S)-5-Chloro-4-cyano-2-(2-methylpiperazin-1-yl)-7-(thiazol-2-yl)benzoxazole] | 94
C[C@H]1CNCCN1c1nc2cc(F)c(C(F)(F)F)c(-c3nccs3)c2o1 [Example 144, (S)-5-Fluoro-2-(2-methylpiperazin-1-yl)-7-(thiazol-2-yl)-6-(trifluoromethyl)benzoxazole] | 41
C[C@H]1CNCCN1c1nc2cc(Cl)cc(S(C)(=O)=O)c2o1 [Example 145, (S)-5-Chloro-2-(2-methylpiperazin-1-yl)-7-(methylsulfonyl)benzoxazole] | 80
